Key:
[1] = Storage stability of packaged anhydrous crystalline decitabine (TGA weight loss); type: physicochemical; conditions: 40±2° C., relative humidity 75±5%, described packaging
Procedure: Thermogravimetric analyses reported herein for decitabine were carried out using a SHIMADZU, DTG-60, Thermogravimetric Analyzer with a ramp of 10° C./minute up to 250° C.
In embodiments, the present application provides a storage system for decitabine. A storage system of the present application comprises at least one sealed polymeric bag, (e.g., a transparent or opaque polyethylene bag having a thickness of about 0.1 mm to about 0.5 mm) or a combination of such bags, which, if desired, may be sealed inside a laminated aluminum bag. An oxygen absorbent and a moisture absorbent (or desiccant), may be included between one or more of such bags. Finally, the packaged material is stored in sealed HDPE containers.
Anhydrous crystalline decitabine with an initial XRD pattern substantially in accordance with FIG. 4 remains stable for a period at least about 4 months, or about 6 months, when stored at 40±2° C. and a relative humidity of 75±5% under the packaging conditions described above. The TGA weight losses of representative samples stored under these conditions are tabulated below.

[2] = Hygroscopicity of decitabine (hygroscopic stability); type: physicochemical; conditions: for Moisture (Wt. %): room temperature
Procedure: Decitabine obtained from Example 10 is tested for hygroscopic stability. Samples are analyzed as initially prepared, and at intervals after 1 day and 7 days of storage at room temperature; the results are tabulated below.

[3] = cited from earlier work

SMILES | period for which it remains stable [1] | TGA Weight Loss (%) ([1]; storage time 1 month) | TGA Weight Loss (%) ([1]; storage time 2 months) | TGA Weight Loss (%) ([1]; storage time 3 months) | TGA Weight Loss (%) ([1]; storage time 4 months) | Moisture (Wt. %) ([2]; 40-50% RH, 1 day) | Moisture (Wt. %) ([2]; 40-50% RH, 7 days) | Moisture (Wt. %) ([2]; 40-50% RH, initial) | Moisture (Wt. %) ([2]; 90% RH, 1 day) | Moisture (Wt. %) ([2]; 90% RH, 7 days) | Moisture (Wt. %) ([2]; 90% RH, initial) | moisture content acquired ([2]; exposed to the atmosphere) | solid form after moisture uptake ([2]; exposed to the atmosphere) | moisture at equilibrium ([3]; exposed to humidity, monohydrate formed) [%] | stability ([3]; room temperature)
Nc1ncn([C@H]2C[C@H](O)[C@@H](CO)O2)c(=O)n1 [Decitabine, 4-amino-1-(2-deoxy-β-D-erythropentofuranosyl)-1,3,5-triazin-2(1H)-one] | at least 4 months | 0.07 | 0.15 | 0.26 | 0.16 | 6.63 | 7.12 | 0.18 | 5.46 | 7.17 | 0.18 | up to 1 mole | change to a monohydrate form | 7 | 
Nc1ncn([C@H]2C[C@H](O)[C@@H](CO)O2)c(=O)n1 [Decitabine monohydrate] |  |  |  |  |  |  |  |  |  |  |  |  |  |  | stable

Source: patent publication US20120046457A1, “PREPARATION OF DECITABINE” (DR. REDDY'S LABORATORIES, INC., priority 2009, published 2012)
